System: TSST-1
Type: binding, Staphylococcus aureus

`CCCCCCCCN` [n-octylamine] was tested, and the “adsorption ability for TSST-1” value was “enhanced to a great extent”.
